According to patent US12723233B2, “Media and methods for differentiating natural killer cells” (STEMCELL Technologies Canada Inc., priority 2018, dated 2026):

What was measured:
[1] = test system: PSC-derived NK cell progenitors; experiment: Differentiation of PSC-derived NK cell progenitors to CD56+ cells; format: cell-based, Human; settings: PSC lines 1C, M001, H1, F016; UM729 during days 24 to 38
Description: Three induced pluripotent stem cell (iPSC) lines—WLS-1C, STiPSC M001, and STiPS F016—and one embryonic stem cell (ESC) line—H1 were maintained in mTeSR™ 1. The PSC were harvested and dissociated using accutase into single cell suspensions and were filtered using 37 μm reversible strainer (STEMCELL Technologies).
Single cell suspensions of PSC were seeded into AggreWell plates (STEMCELL Technologies) to form 500-cell aggregates. The seeded cells were cultured in a mesoderm differentiation medium and 10 μM Y027632 (STEMCELL Technologies). After 3 days (i.e. on day 3) in culture the medium was changed to induce hematopoietic lineage differentiation. After 7 days (i.e. on day 10) in culture the aggregates were harvested and dissociated using collagenase II and a trypsin-containing solution.
Dissociated cells were enriched for CD34^+ cells using EasySep™ Human CD34 Positive Selection Kit II (STEMCELL Technologies, catalogue #17856). […]
The cells were stained for CD56 essentially as described in Example 3 and analyzed for frequency of CD56^+ cells and yield of CD56^+ cells per 5×10^4 input PSC-derived CD34^+ cells. […]

NK cell progenitors = experiment: Differentiation of cord blood CD34+-derived NK cell progenitors to CD56+ NK cells (culture days 14-28), flow cytometry and cell counts; format: cell-based, Human
Description: Human CB samples were obtained from Bloodworks NW (Seattle, WA) and CD34^+ cells were isolated using EasySep™ Human Cord Blood CD34 Positive Selection Kit II (STEMCELL Technologies, Catalogue #17896). Obtained in this way the purity of CD34^+ cells is typically higher than 90%.
The wells of a 24-well plate were coated with StemSpan™ Lymphoid Differentiation Coating Supplement (STEMCELL Technologies, Catalogue #09925) and 5000 CD34^+ cells were plated per well. The CD34^+ cells were cultured for up to 14 days in StemSpan™ SFEM II (STEMCELL Technologies, Catalogue #09605, 09655) supplemented with Lymphoid Progenitor Expansion Supplement (STEMCELL Technologies, Catalogue #09915) with media changes every 3-4 days.
After 14 days in culture, CD34^+ cell-derived NK cell progenitors were harvested. 50,000 NK cell progenitors were plated per well of an uncoated tissue culture 24-well plate. The plated NK cell progenitors were cultured for up to two weeks in NK Cell Differentiation medium (i.e StemSpan™ SFEM II (STEMCELL Technologies, Catalog # 09605, 09655) supplemented with NK Cell Differentiation Supplement (STEMCELL Technologies, Catalogue #09950), and cultured for an additional two weeks with media changes every 3-4 days. UM729 or UM171 was added to supplemented NK Cell Differentiation Medium on days 14-28. On day 28 cells were harvested for analysis or downstream applications.
Harvested cells were stained and measured by flow cytometry for expression of the NK cell lineage marker CD56. Dead cells were excluded by light scatter profile and 7-AAD or DRAQ7 staining. The results in FIGS. 1 and 2 at condition “0” (plotted on the x-axis) indicate the frequency and yield of CD56^+ NK cells that result from experiments that follows the protocol described above but in the absence of UM171 or UM729. Cell counts were obtained using the NucleoCounter NC250. Yield was calculated by dividing the resulting cell number by the number of cells initially seeded. Yields of specific cell types were obtained by multiplying total yield by cell frequency.
Cells were cultured as described in Example 1, with the exception that the up to two week culture of NK cell progenitors (i.e. culture days 14-28) in NK Cell Differentiation medium occurred in the presence or absence of UM171 or UM729.
The effects of UM171 and UM729 were tested across a range of concentrations: 0 nM, 50 nM, 100 nM, 150 nM and 200 nM for UM171; and 0 μM, 0.25 μM, 0.5 μM, 1 μM, and 2 μM for UM729.
CD34^+ CB cells were isolated and cultured as described in Example 1 up to the day 14 time point. Day 14 NK cell progenitors were further cultured in NK Cell Differentiation medium, essentially as described in Example 1, except in the absence of an added pyrimidoindole compound but in the presence or absence of 5 μM CH223191.

[2] = 1 μM UM729, normalized to STD cultures, n=20
[3] = tested 0, 0.25, 0.5, 1, 2 μM, days 14-28

In the case of `COC(=O)c1ccc2c(c1)[nH]c1ncnc(NCCCN3CCCCC3)c12` [UM729, methyl 4-((3-(piperidin-1-yl)propyl)amino)-9H-pyrimido[4,5-b]indole-7-carboxylate], the “Frequency of CD56+ cells compared to absence of UM729” value [1] was “increased”, the “Yield of CD56+ cells per 5×10^4 input PSC-derived CD34+ cells compared to absence of UM729” value [1] was “increased” and the “Frequency of CD56+ NK cells compared to cultures lacking UM729” value (NK cell progenitors; 1 μM UM729, 14 days culture of NK cell progenitors, paired t-test p=0.017) was “increased significantly”. For the same compound, the “Yield of CD56+ NK cells per input cell compared to cultures lacking UM729” value (NK cell progenitors; 1 μM UM729, 14 days culture of NK cell progenitors, paired t-test p=0.032) was “increased significantly”, the “Increase of average frequency of NK cells compared to culture conditions not including a pyrimidoindole compound” value (NK cell progenitors; [2]) was ~ 30% and the “Increase of average yield of NK cells compared to culture conditions not including a pyrimidoindole compound” value (NK cell progenitors; [2]) was 2 fold. The “Concentration at which frequency of CD56+ NK cells appeared to be highest” value (NK cell progenitors; [3]) was 1 µM and the “Concentration at which yield of CD56+ NK cells appeared to be highest” value (NK cell progenitors; [3]) was 1 µM.
